Measured values as given in publication PMC12477080, “Polychlorinated biphenyls (PCBs) interact with drug metabolism in vivo” (Archives of Toxicology, 2025).

What was measured:
recombinant CYP1A2 = target: T1, recombinant CYP1A2 (Homo sapiens, UniProt P05177); test: Luciferase-based P450-Glo enzyme assay with recombinant CYP1A2; type: biochemical; conditions: PCB118 1–10 µM; Luciferin–ME substrate; significant at highest concentration (p < 0.0001)
T1 construct: purchased Promega, Madison, WI, USA
T1 sequence (P05177 1-516): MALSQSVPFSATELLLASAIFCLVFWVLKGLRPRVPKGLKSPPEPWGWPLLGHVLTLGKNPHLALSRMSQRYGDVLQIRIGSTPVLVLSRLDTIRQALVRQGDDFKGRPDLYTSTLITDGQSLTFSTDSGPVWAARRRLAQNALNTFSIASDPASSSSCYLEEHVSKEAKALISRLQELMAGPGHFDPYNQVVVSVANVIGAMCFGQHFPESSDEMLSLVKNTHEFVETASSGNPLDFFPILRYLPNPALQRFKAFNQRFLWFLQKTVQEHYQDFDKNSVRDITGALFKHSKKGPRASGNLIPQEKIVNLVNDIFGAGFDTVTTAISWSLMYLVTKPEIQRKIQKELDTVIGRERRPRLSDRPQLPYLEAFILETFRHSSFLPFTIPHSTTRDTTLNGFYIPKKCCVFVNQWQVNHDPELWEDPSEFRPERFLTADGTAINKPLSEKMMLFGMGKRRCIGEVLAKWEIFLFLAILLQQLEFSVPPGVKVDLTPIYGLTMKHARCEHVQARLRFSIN

CYP2C9 = test: CYP phenotyping cocktail clinical study: torsemide/OH-torsemide metabolic ratio and its association with PCB plasma levels; conditions: linear regression of MR AUC0–8 h OH-torsemide/torsemide (CYP2C9 activity) on PCB plasma concentration
Procedure: The participants were ascertained not to have any acute disease by medical history, physical examination, laboratory screening, including hematological and biochemical blood tests, and a 12-lead electrocardiogram. […] The demographic data of the subjects are summarized in Table 1 in the supplemental data. At the enrollment visit, 2 blood samples (9 ml each) were collected into ethylenediaminetetraacetic acid (EDTA)-containing tubes taken from each subject for analyzing the plasma concentrations of PCB congeners and for pharmacogenetic analysis.
Participants stayed fasted from the evening before until 3 h after drug administration. After that, a meal was provided. Water and juice were permitted but alcoholic and caffeinated beverages were not allowed from the evening before drug administration until the last blood sample was taken on the next day. Venous blood samples (9 ml each) were collected through an intravenous catheter immediately before and 0.25, 0.5, 0.75, 1, 1.5, 2, 2.5, 3, 4, 5, 6, 7, 8, and 24 h after drug administration. Blood was drawn into EDTA-coated tubes, centrifuged at 1500 g for 10 min at 4 °C, and plasma samples were subsequently stored at − 80 °C until further analysis. After completely voiding the bladder immediately before drug administration, the participants collected urine from 0 to 24 h after drug administration. After weighing the collected urine, a 10 ml aliquot of each fraction was taken.
Commercially sourced standards and internal standards were used for quantification (see Supplemental Materials). In brief, 20 µl of the plasma samples were protein-precipitated with 80 µl methanol containing all internal standards or were treated for 16 h at 37 °C with 2 µl β-glucuronidase (1,000,000 Units) for deconjugation before protein precipitation with 78 µl methanol containing internal standards. Samples were centrifuged for 20 min, at 4 °C and 17,000 × g, and 40 µl of the supernatants were diluted with 40 µl LC–MS grade water, centrifuged again for 5 min at 4 °C and 17,000 × g and 50 µl supernatant were transferred to LC–MS vials 5 µl of the samples were injected into the LC–MS system.
An Agilent 1290 Infinity II UHPLC coupled with a SCIEX QTRAP6500 + triple quadrupole mass spectrometer was used. Chromatographic separation was achieved on an Agilent Poroshell 120 EC-C18 (1.9 µm, 2.1 × 50 mm) column with A: 0.1% formic acid in water and B: methanol with a flow rate of 0.7 ml/min and a total run time of 8.5 min. Analytes were eluted using a gradient program. The following gradient steps represent gradual changes in % B over time: 5% B from 0 to 0.2 min, 30% B at 2 min, 34% B at 4.8 min, 95% B at 6.5 min, 95% B at 7.5 min and re-equilibrating to 5% B at 7.7 min and 5%B till 8.5 min. A representative chromatogram is shown in supplemental Fig. 2. The scheduled MRM mode was applied for analyte detection in both positive and negative ESI modes (Supplementary Table 4). Calibration curves were constructed with linear regression using weighted (1/x^2) models (detailed information in supplemental methods).
Partial areas under the plasma concentration–time curves from 0 to 3 h (AUC0–3 h), from 0 to 4 h (AUC0–4 h), and from 0 to 8 h (AUC0–8 h) were calculated based on measured concentrations by the linear trapezoidal rule without extrapolation. […] Metabolic ratios (MR) were calculated by dividing the partial AUC of the metabolite by the respective partial AUC of the parent drug. The MRs were used as biomarkers for the individual CYP activities of the study subjects.

Clc1ccc(-c2cc(Cl)c(Cl)cc2Cl)cc1Cl [PCB118]
effect on CYP1A2 enzyme activity (luminescence) (recombinant CYP1A2): concentration-dependent inhibitory effect | t value (CYP2C9): 1,339 | β (standardized regression coefficient) (CYP2C9): 0,301 | t value (CYP2C9; PM excl): 1,228 | β (standardized regression coefficient) (CYP2C9; PM excl): 0,286
